For data set [1] the following is noted: rat, in vivo, po.
Data set [2] in a line: Gravimetric Vapour Sorption (GVS). Type of data set: physicochemical. As to conditions: after the full sorption/desorption cycle.
Data set [3] in a line: Thermodynamic Aqueous Solubility by HPLC. Type of data set: physicochemical. As to conditions: water, 25° C. The procedure:
Aqueous solubility was determined by suspending sufficient compound in water to give a maximum final concentration of ≧10 mg·ml^−1 of the parent free-form of the compound. The suspension was equilibrated at 25° C. for 24 hours then the pH was measured. The suspension was then filtered through a glass fibre C filter into a 96 well plate. The filtrate was then diluted by a factor of 101. Quantitation was by HPLC with reference to a standard solution of approximately 0.1 mg·ml^−1 in DMSO. Different volumes of the standard, diluted and undiluted sample solutions were injected. The solubility was calculated using the peak areas determined by integration of the peak found at the same retention time as the principal peak in the standard injection.
Analysis was performed on an Agilent HP1100 series system equipped with a diode array detector and using ChemStation software vB.02.01-SR1.

Data set [4] is described as follows: Liquid formulations (oral solutions/suspensions). Type of data set: physicochemical. The settings on record: certain solvent systems, below pH values of about 9-10. How it is done:
Values of pH reported were estimated based on pH indicating strips. […] Accordingly, provided in certain embodiments herein were formulations having a pH above about 9, above about 10 or of about 10. In certain embodiments, the formulation was buffered at a pH of about 10. All formulations prepared were sonicated for about 10 minutes.

Data set [5] relates to whole blood ionophore-stimulated leukotriene LTB4. Nature of the data set: Phase I study, whole blood ionophore-stimulated LTB4. Type of data set: in vivo, human. The source says: Study Design: Single center, double-blind, randomized, placebo-controlled, single ascending dose followed by multiple ascending dose study.
Sample Size: (1) Single Dose Phase: eight (8) subjects (6 active, 2 placebo) per dose level; up to 5 dose levels are planned (a total of 40 subjects if all 5 dose levels are completed); and (2) Multiple Dose Phase: eight (8) subjects (6 active, 2 placebo) per dose level; up to 4 dose levels are planned (a total of 32 subjects if all 4 dose levels are completed).
Formulations: Compound 2 was supplied as an oral powder for reconstitution. Placebo solution matched. […] The placebo differed only in the absence of the active.
The following dosing cohorts were used:
Routes of Administration: All doses were administered orally with approximately 100 mL of water rinse. Subjects were fasted for at least 8 hours prior to dosing and for 2 hours after dosing. For BID dosing in the Multiple Dose Phase, when applicable, subjects were fasted for at least 2 hours prior to the second daily dose.
Plasma concentrations of Compound 1 were determined using a validated LC/MS method. Whole blood ionophore-stimulated leukotriene LTB4 and urinary LTE4 production were assayed by ELISA and mass spectrometry, respectively.
Analysis of Samples: Concentrations of Compound 1 was determined in plasma samples collected from subjects. Similarly, concentrations of LTB4 in plasma and urinary LTE4 were determined in blood and urine samples collected.

A further data set has as its system chronic asthma. As to conditions: clinical studies; cited from earlier work.
Data set [6] deals with allergen-induced early and late phases of lung-volume decline. As to conditions: clinical trials; cited from earlier work.

Values after ≈ are worked out from the molar mass of the structure shown.

As to `CCOc1ccc(-c2ccc(Cn3c(CC(C)(C)C(=O)[O-])c(SC(C)(C)C)c4cc(OCc5ccc(C)cn5)ccc43)cc2)cn1.[Na+]` [Amorphous Phase A], the plasma exposures entry in data set [1] is given as “equivalent plasma exposures”. Besides, the “XRPD pattern after the GVS experiment” value in data set [2] is on record as “No changes were observed”. In data set [3], the “Appearance of mixture after equilibration for 24 hours” value is listed as “Suspension”. Besides, in data set [3] (24 hours, listed as Compound 2 Phase A), the “Concentration of filtrate (as mg/mL of free base)” value is reported as greater than 10 mg/mL.

On to `CCOc1ccc(-c2ccc(Cn3c(CC(C)(C)C(=O)O)c(SC(C)(C)C)c4cc(OCc5ccc(C)cn5)ccc43)cc2)cn1` [Compound 1, 3-[3-(tert-butylsulfanyl)-1-[4-(6-ethoxy-pyridin-3-yl)benzyl]-5-(5-methyl-pyridin-2-yl-methoxy)-1H-indol-2-yl]-2,2-dimethylpropanoic acid], for which the solubility in words result in data set [4] was “sparingly soluble”. In addition, in data set [5] (Homo sapiens, dose range studied, read-out: EC50, plasma concentration vs inhibition of ionophore-stimulated LTB4 production), the EC50 was roughly 0.07 µg/mL (≈ 0.11 µM). Further, in data set [5] (Homo sapiens, dose range studied, read-out: EC90, plasma concentration vs inhibition of ionophore-stimulated LTB4 production), the EC90 was roughly 0.32 µg/mL (≈ 0.502 µM). The “plasma concentration at which complete inhibition of ionophore-stimulated LTB4 production was reached” value in data set [5] (in vivo) is 1000 to 1500 ng/mL.

For `CC(c1cc2ccccc2s1)N(O)C(N)=O` (centres unmarked) [Zileuton, zileuton], the “efficacy in chronic asthma” value in the data set with chronic asthma is recorded as “exhibits clinical efficacy”. For the same compound, in data set [6], the “efficacy in allergen-challenge studies (allergen-induced early and late phases of lung-volume decline)” value (“efficacy in allergen-challenge studies” for short) is given as “not effective”.

For the compound `O=C(O)[C@@H](c1ccc(OCc2ccc3ccccc3n2)cc1)C1CCCC1` [BAYX-1005], in data set [6], the “efficacy in allergen-challenge studies” value is on record as “show efficacy”.

`CC(C)(C)Sc1c(CC(C)(C)C(=O)O)n(Cc2ccc(Cl)cc2)c2ccc(OCc3ccc4ccccc4n3)cc12` [MK-0591]: the “efficacy in chronic asthma” value in the data set with chronic asthma was “shows efficacy”. In addition, in data set [6], the “efficacy in allergen-challenge studies” value was “show efficacy”.

For the compound `CC(C)c1ccc2c(c1)c(SC(C)(C)C)c(CC(C)(C)C(=O)O)n2Cc1ccc(Cl)cc1` [MK-866], the “efficacy in allergen-challenge studies” value in data set [6] is recorded as “show efficacy”.

The values above are taken from patent publication US20110160249A1, “5-LIPOXYGENASE-ACTIVATING PROTEIN INHIBITOR” (priority 2008, published 2011).
